Read-outs that look alike come from different tables or passages of the source. Bounds are passed on as bounds.

The test system of data set [1] is Human colon carcinoma HCT116 cell line. Description: Tumor growth inhibition in an animal model (HCT116 xenograft). The format is in vivo, Balb/c nude mouse. Conditions: 100 mpk, oral daily for 12 days. How it is done: Tumor size was measured twice a week using Caliper. […] A vehicle control was 20% propylene glycol (PG) and a positive control was Xeloda at 100 mg/kg.

The next data set concerns the target T1, CDK1/cyclinB (Homo sapiens, UniProt P06493).
T1 construct: purchased Merck Millipore
Description: Inhibition of CDK enzyme activity (ADP-Glo kinase assay). The format is biochemical. The settings on record: 10 uM ATP, histone H1 substrate. (In general: ADP-Glo first removes unused ATP, then detects ADP through luciferase.)

The next data set concerns the target T2, CDK2/cyclinE (Homo sapiens, UniProt P24941).
T2 construct: purchased Merck Millipore
The description is as above. The format is biochemical. Conditions: 10 uM ATP, histone H1 substrate. The gist of the method: (§1)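 Kinase reactions in 50 mM Tris-HCl pH 7.5 with MgCl2, EGTA, EDTA and DTT, at 10 µM ATP. CDK2/cyclinE and CDK5/p25 were used at 10 nM and CDK6/cyclinD3 at 50 nM with 0.125 mg/ml histone H1; CDK4/cyclinD1 was used at 20 nM with 0.125 mg/ml Rb protein. After 60 min at 30 °C, ADP was read by ADP-Glo luminescence and IC50 taken from % inhibition versus no-compound control.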

Another data set concerns the target T3, CDK4/cyclinD1 (Homo sapiens, UniProt P11802).
T3 construct: purchased Signalchem (US)
Described as above. The data set is classed as biochemical. Conditions: 10 uM ATP, Rb protein substrate; read-out: IC50 CDK4/cyclinD. In outline:
as §1

In the next data set the target is T4, CDK5/p25 (Homo sapiens, UniProt Q00535).
T4 construct: purchased Merck Millipore
T4 sequence (Q00535 whole entry): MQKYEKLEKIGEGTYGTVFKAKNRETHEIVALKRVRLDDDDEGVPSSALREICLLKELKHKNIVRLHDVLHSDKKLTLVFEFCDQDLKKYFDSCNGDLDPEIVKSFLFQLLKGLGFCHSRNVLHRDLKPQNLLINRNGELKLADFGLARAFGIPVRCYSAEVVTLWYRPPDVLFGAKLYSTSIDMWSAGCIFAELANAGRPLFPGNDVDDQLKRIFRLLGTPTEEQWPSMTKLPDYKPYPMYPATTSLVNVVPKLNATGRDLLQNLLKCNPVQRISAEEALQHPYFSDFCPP
T4 sequence (Q15078 99-307 partner limits assumed): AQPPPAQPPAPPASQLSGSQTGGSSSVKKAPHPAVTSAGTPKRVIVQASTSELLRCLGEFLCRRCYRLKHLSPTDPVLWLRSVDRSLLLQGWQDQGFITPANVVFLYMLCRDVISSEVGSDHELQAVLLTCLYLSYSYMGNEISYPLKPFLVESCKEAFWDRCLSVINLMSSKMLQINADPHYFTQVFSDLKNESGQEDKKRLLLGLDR
The data set is described as above. The format is biochemical. The settings on record: 10 uM ATP, histone H1 substrate. The gist of the method: as §1

The target in another data set is T5, CDK6/cyclinD3 (Homo sapiens, UniProt Q00534).
T5 construct: purchased Merck Millipore
T5 sequence (Q00534 whole entry): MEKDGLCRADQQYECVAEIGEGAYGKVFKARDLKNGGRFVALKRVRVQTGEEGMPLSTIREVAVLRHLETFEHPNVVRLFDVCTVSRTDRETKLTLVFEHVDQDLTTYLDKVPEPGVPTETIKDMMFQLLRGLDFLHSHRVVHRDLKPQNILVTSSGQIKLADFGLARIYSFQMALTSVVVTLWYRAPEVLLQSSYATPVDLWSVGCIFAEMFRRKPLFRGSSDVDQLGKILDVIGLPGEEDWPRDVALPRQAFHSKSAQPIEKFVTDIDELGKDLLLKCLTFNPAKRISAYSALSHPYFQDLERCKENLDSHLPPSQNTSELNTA
T5 sequence (P30281 whole entry partner): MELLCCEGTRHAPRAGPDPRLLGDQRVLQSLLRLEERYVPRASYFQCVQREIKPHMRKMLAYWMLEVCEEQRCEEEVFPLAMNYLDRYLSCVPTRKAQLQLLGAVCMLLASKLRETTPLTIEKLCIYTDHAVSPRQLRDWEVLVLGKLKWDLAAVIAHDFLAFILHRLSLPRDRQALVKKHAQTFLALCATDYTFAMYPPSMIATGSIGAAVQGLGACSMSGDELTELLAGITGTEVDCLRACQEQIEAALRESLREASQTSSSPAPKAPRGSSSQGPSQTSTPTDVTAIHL
The description is as above. The data set is classed as biochemical. Conditions: 10 uM ATP, histone H1 substrate; read-out: IC50 CDK6/cyclinD. The gist of the method: as §1

A further data set has as its system HCT116. Description: Inhibition of cancer cell proliferation (MTT). The format is cell-based, human.
Another data set deals with SH-SY5Y. Description: Inhibition of cancer cell proliferation (MTT). The data set is classed as cell-based, human. The settings on record: Homo sapiens, SH-SY5Y, 72 h. The gist of the method: (§2)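 Growth inhibition over 72 h was measured in attached cultures (3000 per well) with 0.08% DMSO as the control. Viable cells were detected with a 2 h MTT step, and the concentration giving 50% inhibition was taken as GI50.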

A further data set relates to SK-N-SH. As to the kind of experiment: Inhibition of cancer cell proliferation (MTT). The data set is classed as cell-based, human. The settings on record: Homo sapiens, SK-N-SH, 72 h. The gist of the method: as §2
The subject of another data set is T98G. As to the kind of experiment: Inhibition of cancer cell proliferation (MTT). The format is cell-based, human. In outline:
as §2

The subject of another data set is U-87MG. As to the kind of experiment: Inhibition of cancer cell proliferation (MTT). The data set is classed as cell-based, human. The gist of the method: as §2
A short description of data set [2]: Blood brain barrier permeation. The data set is classed as in vivo, ICR mice. The settings on record: mouse, 10 mg/kg, oral once 10 mg/kg. How it is done:
Using 9-week-old male ICR mice, the compounds obtained in the above Examples were orally administered once at a dose of 10 mg/kg or 30 mg/kg, and after 1 hr and 4 hrs, the concentrations of the compounds in the blood and brain of the mice were determined. 3 ICR mice were assigned in each group. Plasma was separated from the blood obtained after sacrificing the mice at each time, the brain of the mice was extracted, and the […] was washed with PBS, followed by pulverizing the brain tissue. The blood was placed in a test tube containing heparin to prevent coagulation and then was centrifuged at 12,000 rpm at 4° C. for 3 min to give a supernatant from which plasma was collected. Brain tissue was weighed, and the brain was pulverized using Dounce's homogenizer after adding 3 times as much volume of PBS as the brain weight. Each of the obtained analytical samples was quantitatively analyzed using a tandem liquid chromatography-mass spectrometer (Tandem LC/MS/MS, API3000 & Agilent 1100 series). Brain permeability of a compound is expressed as a value obtained by dividing the concentration of the compound in the brain by the concentration of the compound in the plasma (B/P ratio), and when the B/P ratio is greater than 1, it means that the concentration in the brain is higher than the one in the blood.

Another data set has as its system A549. As to the kind of experiment: Inhibition of cancer cell proliferation (MTT). The data set is classed as cell-based, human. Conditions: Homo sapiens, A549, 72 h. In outline:
as §2

The next data set has as its system NCI-H23. Description: Inhibition of cancer cell proliferation (MTT). Conditions: Homo sapiens, NCI-H23, 72 h. The format is cell-based, human. The gist of the method: as §2
In a further data set the test system is Aβ (amyloid β protein). As to the kind of experiment: Inhibition of Aβ generation in B103/APP cells (Aβ42 ELISA). Conditions: Rattus norvegicus, 72 hrs. The data set is classed as cell-based. On the procedure:
The APP gene was inserted into B103 cells so that APP could be stably expressed and the resulting B103/APP cells were used to confirm inhibition of APP phosphorylation and Aβ generation.
Further, to confirm whether Aβ generation is reduced due to APP phosphorylation inhibition, 5×10^5 B103/APP cells were cultured in a 6-well plate for 16 hrs. Afterwards, the compounds obtained in the above Examples were added at 100 nM, 75 nM, 50 nM, 25 nM, 12.5 nM to a medium containing 500 ug/ml of G418 and 0.5% FBS and incubated for 72 hrs. After 72 hrs, the amount of Aβ was quantified using the medium by Human Aβ42 ELISA kit (Invitrogen).
In general terms: In an ELISA, binding on a coated surface is turned into a signal by an enzyme label.

T1 sequence (P06493 whole entry): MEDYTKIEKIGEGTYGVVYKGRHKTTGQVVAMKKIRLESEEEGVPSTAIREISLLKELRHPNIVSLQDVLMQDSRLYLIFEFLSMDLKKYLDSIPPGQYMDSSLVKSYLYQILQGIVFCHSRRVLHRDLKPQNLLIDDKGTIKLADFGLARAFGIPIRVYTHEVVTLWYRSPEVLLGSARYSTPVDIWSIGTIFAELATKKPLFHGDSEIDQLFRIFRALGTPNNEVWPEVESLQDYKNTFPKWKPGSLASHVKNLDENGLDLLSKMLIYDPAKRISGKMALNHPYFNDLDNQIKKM
T1 sequence (P14635 whole entry partner): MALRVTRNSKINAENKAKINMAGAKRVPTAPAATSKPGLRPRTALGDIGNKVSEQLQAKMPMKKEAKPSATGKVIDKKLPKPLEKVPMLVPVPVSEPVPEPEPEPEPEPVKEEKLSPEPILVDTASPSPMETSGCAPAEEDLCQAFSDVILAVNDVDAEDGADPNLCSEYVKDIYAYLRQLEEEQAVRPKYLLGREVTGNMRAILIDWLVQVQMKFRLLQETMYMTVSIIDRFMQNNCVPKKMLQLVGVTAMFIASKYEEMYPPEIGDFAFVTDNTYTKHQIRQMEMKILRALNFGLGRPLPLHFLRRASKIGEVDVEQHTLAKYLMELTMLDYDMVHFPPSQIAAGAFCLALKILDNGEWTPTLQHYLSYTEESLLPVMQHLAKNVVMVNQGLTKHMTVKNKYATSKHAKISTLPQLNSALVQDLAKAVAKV
T3 sequence (P11802 whole entry): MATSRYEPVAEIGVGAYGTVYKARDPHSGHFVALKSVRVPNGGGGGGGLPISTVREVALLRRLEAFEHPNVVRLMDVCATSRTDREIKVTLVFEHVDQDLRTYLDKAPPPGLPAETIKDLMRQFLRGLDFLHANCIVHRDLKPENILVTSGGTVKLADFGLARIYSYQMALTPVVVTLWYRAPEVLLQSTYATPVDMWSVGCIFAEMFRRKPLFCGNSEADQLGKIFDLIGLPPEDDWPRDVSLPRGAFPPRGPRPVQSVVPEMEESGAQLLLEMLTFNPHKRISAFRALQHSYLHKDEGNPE
T3 sequence (P24385 whole entry partner): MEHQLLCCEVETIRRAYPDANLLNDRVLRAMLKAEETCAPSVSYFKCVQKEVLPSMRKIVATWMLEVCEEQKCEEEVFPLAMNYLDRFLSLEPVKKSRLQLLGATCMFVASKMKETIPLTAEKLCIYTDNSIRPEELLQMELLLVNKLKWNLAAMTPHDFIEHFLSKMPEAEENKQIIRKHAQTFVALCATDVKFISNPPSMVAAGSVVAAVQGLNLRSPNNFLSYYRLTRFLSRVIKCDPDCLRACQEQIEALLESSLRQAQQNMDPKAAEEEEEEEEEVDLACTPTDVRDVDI

In [1], `CCCCCOC(=O)Nc1nc(=O)n([C@@H]2O[C@H](C)[C@@H](O)[C@H]2O)cc1F` [Xeloda, reference compound] gave a Tumor size of 994.7 ± 405.5 mm^3. This molecule gave a tumor growth inhibition in [1] (vs vehicle control) of 46%.
Regarding `Nc1nccc(-c2nc(-c3ccncc3)ccc2O)n1` [Example 12, 6-(2-aminopyrimidin-4-yl)-[2,4′-bipyridin]-5-ol], the IC50 was 12.6 nM at CDK1/cyclinB; 6.6 nM against CDK2/cyclinE; more than 200 nM on CDK4/cyclinD1; 5.9 nM against CDK5/p25; 50.7 nM on CDK6/cyclinD3. Also, the 50% growth inhibitory concentration (GI50) in the data set on HCT116 (Homo sapiens, HCT-116, 72 h) worked out at 230 nM; with SH-SY5Y, 240 nM; in the data set on SK-N-SH it was 420 nM; in the data set on T98G (Homo sapiens, T98G, 72 h), 1830 nM; with U-87MG (Homo sapiens, U-87 MG, 72 h) it was 790 nM. Moreover, the concentration at 1 h in data set [2] (male, ICR, brain, po, 1 hr, read-out: Concentration in the brain) is 71.1 ng/g; in [2] (male, ICR, plasma, po, 1 hr, read-out: Concentration in the plasma) it was 17.3 ng/mL. Also, the concentration at 4 h in data set [2] (male, ICR, brain, po, 4 hrs, read-out: Concentration in the brain) came out at 9.1 ng/g; in data set [2] (male, ICR, plasma, po, 4 hrs, read-out: Concentration in the plasma), 2.6 ng/mL. In addition, the Kp at 1 h in data set [2] (male, ICR, brain/plasma, po, 1 hr, read-out: B/P ratio) turned out to be 4.1. Besides, the Kp at 4 h in data set [2] (male, ICR, brain/plasma, po, 4 hrs, read-out: B/P ratio) came out at 3.54.
Take `Nc1nccc(-c2nc(-c3ccnc(N)c3F)ccc2O)n1` [Example 66]: the results for the IC50 against CDK1/cyclinB, on CDK2/cyclinE and against CDK5/p25 were 0.6 nM, 1 nM and 0.3 nM, respectively. In addition, the GI50 in the data set with A549 is 30 nM; with HCT116 (72 hrs), 10 nM; in the data set on NCI-H23, 30 nM; in the data set with T98G (72 hrs) it was 30 nM; in the data set on U-87MG (72 hrs) it was 20 nM. In addition, the B/P ratio was found to be 2.44 in data set [2] (1 hr) and 2.93 in data set [2] (4 hrs). Besides, the “Concentration in the brain” value in [2] (1 hr) is recorded as 80.5 ng/g; in [2] (4 hrs) it was 58.9 ng/g. Also, the entries for the “Concentration in the plasma” value in data set [2] (1 hr) and in data set [2] (4 hrs) were 32.9 ng/mL and 20.1 ng/mL, respectively. The molecule further yielded an inhibition at 0.0125 µM with Aβ (amyloid β protein) (12.5 nM) of 36.6%. The inhibition at 0.025 µM in the data set on Aβ (amyloid β protein) (25 nM) was 46.6%. This molecule had an inhibition at 0.05 µM with Aβ (amyloid β protein) (50 nM) of 75.9%. The inhibition at 0.075 µM with Aβ (amyloid β protein) (75 nM) is 100%. Besides, 0.1 µM produced 100% inhibition with Aβ (amyloid β protein) (100 nM).

A word on the GI50: it is the concentration giving 50% growth inhibition. The term inhibition denotes the share of the control response that was lost under treatment. Low values mean little suppression, high ones strong suppression.

The record behind these values is patent US20200190062A1, “HETEROCYCLIC COMPOUND AND PHARMACEUTICAL COMPOSITION COMPRISING SAME” (BEYONDBIO INC., priority 2015, published 2020).
